pIC50: −log10 of the molar value.
What was measured:
[1] = target: T1, hFASN enzyme (full length) (Homo sapiens, UniProt P49327); assay: Fatty Acid Synthase (FASN) Inhibition Scintillation Proximity Assay; format: biochemical; conditions: for pIC50: mean where tested more than once, ~ = standard error of pIC50 larger than 0.5; for inhibition at 10 µM: read-out: FASN % Effect @1E−05M
T1 construct: 10 μL hFASN enzyme (full length, 300 ng, purified in house); made in house
Procedure, shortened: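 Purified full-length human FASN (300 ng) incubated 60 min at room temperature with NADPH, [3H]-acetyl-CoA and malonyl-CoA in 100 mM KH2PO4 pH 7.5, 1 mM DTT; compound at 30 μM to 0.01 μM. [3H]-palmitate captured by SPA imaging beads; IC50 from 4-parameter fit, reported as pIC50.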

[2] = target: T2, FASN Keto-reductase Domain (Homo sapiens, UniProt P49327); assay: Fatty Acid Synthase Keto-Reductase Domain (FASN KR) Inhibition; format: biochemical; conditions: mean where tested more than once; read-out: FASN K-R Domain pIC50 (converted)
T2 construct: 10 μL hFASN enzyme (full length, 300 ng, purified in house) and 360 μM NADPH; made in house
T2 sequence (P49327 whole entry, the tested form may be a part): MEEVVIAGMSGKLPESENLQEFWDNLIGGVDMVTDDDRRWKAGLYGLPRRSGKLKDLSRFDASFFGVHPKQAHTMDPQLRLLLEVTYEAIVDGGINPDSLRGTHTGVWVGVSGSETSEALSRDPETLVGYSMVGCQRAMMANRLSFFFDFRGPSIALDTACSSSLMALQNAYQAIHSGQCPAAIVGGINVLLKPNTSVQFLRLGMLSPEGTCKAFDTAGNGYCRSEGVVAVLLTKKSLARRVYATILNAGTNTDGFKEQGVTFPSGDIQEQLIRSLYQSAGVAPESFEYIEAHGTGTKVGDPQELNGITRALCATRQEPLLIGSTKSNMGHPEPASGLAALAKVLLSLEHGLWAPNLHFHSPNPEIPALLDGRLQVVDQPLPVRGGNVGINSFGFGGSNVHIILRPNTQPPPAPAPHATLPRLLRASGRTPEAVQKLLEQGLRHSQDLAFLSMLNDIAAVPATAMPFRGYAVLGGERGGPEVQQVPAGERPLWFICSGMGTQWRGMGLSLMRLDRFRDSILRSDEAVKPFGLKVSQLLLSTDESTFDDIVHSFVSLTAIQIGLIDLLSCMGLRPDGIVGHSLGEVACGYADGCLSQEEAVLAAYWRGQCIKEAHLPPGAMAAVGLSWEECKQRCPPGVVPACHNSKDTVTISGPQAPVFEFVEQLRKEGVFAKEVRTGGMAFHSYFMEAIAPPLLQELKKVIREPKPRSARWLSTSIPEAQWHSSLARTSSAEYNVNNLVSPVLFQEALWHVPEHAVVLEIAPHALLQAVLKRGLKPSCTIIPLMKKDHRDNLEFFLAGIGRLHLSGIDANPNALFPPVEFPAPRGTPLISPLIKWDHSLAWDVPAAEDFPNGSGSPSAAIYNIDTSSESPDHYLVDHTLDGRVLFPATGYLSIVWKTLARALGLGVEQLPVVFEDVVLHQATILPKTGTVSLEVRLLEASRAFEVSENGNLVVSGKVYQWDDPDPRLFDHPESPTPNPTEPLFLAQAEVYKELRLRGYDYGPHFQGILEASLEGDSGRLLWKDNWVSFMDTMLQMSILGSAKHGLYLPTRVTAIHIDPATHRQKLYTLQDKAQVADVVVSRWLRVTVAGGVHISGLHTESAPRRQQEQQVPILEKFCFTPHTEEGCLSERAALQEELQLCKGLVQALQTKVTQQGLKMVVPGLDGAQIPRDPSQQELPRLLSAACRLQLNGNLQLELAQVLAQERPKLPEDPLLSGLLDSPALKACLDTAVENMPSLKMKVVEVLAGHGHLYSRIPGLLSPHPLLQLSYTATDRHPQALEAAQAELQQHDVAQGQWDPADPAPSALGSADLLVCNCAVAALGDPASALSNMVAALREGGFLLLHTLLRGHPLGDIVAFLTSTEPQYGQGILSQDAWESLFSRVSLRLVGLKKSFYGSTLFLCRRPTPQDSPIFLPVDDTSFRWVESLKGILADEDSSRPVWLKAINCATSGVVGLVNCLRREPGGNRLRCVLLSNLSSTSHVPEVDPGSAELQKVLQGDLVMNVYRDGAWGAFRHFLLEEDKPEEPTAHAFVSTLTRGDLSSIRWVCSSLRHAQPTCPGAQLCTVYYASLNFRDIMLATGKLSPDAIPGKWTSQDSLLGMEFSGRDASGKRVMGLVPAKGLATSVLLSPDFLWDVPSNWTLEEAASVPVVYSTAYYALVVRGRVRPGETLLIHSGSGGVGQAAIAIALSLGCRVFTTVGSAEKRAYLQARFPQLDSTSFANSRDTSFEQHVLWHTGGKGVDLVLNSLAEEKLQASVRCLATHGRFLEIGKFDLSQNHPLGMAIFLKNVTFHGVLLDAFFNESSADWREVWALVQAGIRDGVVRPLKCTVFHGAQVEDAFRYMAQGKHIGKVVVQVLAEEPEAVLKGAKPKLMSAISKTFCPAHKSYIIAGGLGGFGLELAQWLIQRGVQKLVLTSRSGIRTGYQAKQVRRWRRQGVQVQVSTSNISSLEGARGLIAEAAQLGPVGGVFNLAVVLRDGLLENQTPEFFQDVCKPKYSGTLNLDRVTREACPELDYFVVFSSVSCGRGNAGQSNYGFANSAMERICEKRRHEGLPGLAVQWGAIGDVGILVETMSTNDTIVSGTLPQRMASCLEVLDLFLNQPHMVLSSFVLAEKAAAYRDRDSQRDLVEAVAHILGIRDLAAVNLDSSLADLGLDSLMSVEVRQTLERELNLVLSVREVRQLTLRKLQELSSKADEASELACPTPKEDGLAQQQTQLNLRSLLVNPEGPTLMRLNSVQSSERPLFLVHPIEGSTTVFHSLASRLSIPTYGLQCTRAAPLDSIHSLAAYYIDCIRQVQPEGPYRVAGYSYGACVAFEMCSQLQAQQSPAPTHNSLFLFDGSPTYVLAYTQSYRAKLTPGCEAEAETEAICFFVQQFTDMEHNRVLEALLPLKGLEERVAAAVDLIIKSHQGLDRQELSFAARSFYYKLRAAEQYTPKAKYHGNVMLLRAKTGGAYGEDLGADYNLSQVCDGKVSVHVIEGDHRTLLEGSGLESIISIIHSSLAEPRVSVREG
Procedure, shortened: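 Full-length human FASN (300 ng) in 100 mM KH2PO4 pH 7.5 with 360 μM NADPH and 180 mM ethyl acetoacetate (stock); A340 decrease read over 20 min at room temperature.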

[3] = test system: A2780 ovarian cells; assay: A2780 Ovarian Cell Proliferation Assay in Lipid Reduced Medium, without Palmitate; format: cell-based; conditions: Homo sapiens, A2780; lipid reduced medium, without palmitate, 96 h, MTT; read-out: Proliferation A2780 w/o Palmitate pIC50 (converted)
Experimental: (§1) The biological assays described below correspond to comparative assays for ovarian cell proliferation. […] Compounds active in the absence of palmitate would not be expected to be active in the control.
(§2) 2500 cells were seeded in a 96-well clear well plate in 200 μL RPMI1640 with 10% Fetal Calf Serum (Hyclone), and incubated at 37° C., 5% CO2. Blanks were wells without cells. The next day the culture medium was aspirated and replaced by 160 μL culture medium with 10% Lipid-Reduced Serum (LRS, Hyclone). 20 μL test compound (at concentrations of 30 μM, 10 μM, 3 μM, 1 μM, 0.30 μM, 0.10 μM, 0.03 μM and 0.01 μM)/DMSO dilution followed by 20 μL ethanol-BSA solution were added to a final concentrations of 0.2% DMSO, 0.2% fatty-acid-free BSA, 0.25% ethanol. After 96 h incubation an MTT assay was performed. The absorbance was measured at 544 nm on a SPECTRAMAX.
Raw data generated by the instrument were normalized to % Controlmin values, which were calculated as: % Controlmin=100*(x−mLC)/(mHC−mLC)
where mLC and mHC were the means of the low control wells and high control wells on the plate, after manual exclusion of outliers. A plot of Controlmin versus test compound concentration was fitted to a 4-parameter logistic curve using a non-linear least squares regression method. From the plot, an IC50 (concentration at which 50% inhibition is achieved) was calculated. pIC50 values were calculated as −log(IC50), when IC50 is expressed in molar units.
(§3) Representative compounds of the present invention were tested according to the procedure as described in Biological Example 3 above, with results as listed in Table BIO-3, below.

[4] = test system: A2780 ovarian cells; assay: A2780 Ovarian Cell Proliferation Assay in Lipid Reduced Medium, with Palmitate (control); format: cell-based; conditions: Homo sapiens, A2780; lipid reduced medium, 25 μM palmitate, 96 h, MTT; read-out: Proliferation A2780 with Palmitate pIC50 (converted)
Experimental: as §1
as §2, with “palmitate-BSA” for “ethanol-BSA”, “DMSO, 25 μM palmitate (Sigma, P0500, 10 mM stock solution in ethanol)” for “DMSO,”, “incubation,” for “incubation”
A best fit curve was fitted by a minimum sum of squares method, plotting Controlmin versus test compound concentration. From the plot, an IC50 (concentration at which 50% inhibition is achieved) was calculated. pIC50 values, presented in the Table below, were calculated as −log(IC50).
as §3

T1 sequence (P49327 whole entry): as the sequence (P49327 whole entry, the tested form may be a part) above

| SMILES | pIC50 [1] | inhibition at 10 µM [1] [%] | IC50 [2] [nM] | IC50 [3] [nM] | IC50 [4] [µM] |
| --- | --- | --- | --- | --- | --- |
| Cc1ccc(C(=O)N2CCC(c3ccc(-c4ccnn4C)cc3)CC2)cc1NC(=O)c1ccc(NC(C)C)nc1 [Compound 44, 6-(Isopropylamino)-N-(2-methyl-5-(4-(4-(1-methyl-1H-pyrazol-5-yl)phenyl)piperidine-1-carbonyl)phenyl)nicotinamide] | 7.21 | 102 | 89.1 | 155 | > 10 |
| Cc1ccc(C(=O)N2CCC(c3ccc4c(c3)CC(=O)N4)CC2)cc1NC(=O)c1ccc(Cl)nc1 [Compound 50, 6-chloro-N-(2-methyl-5-(4-(2-oxoindolin-5-yl)piperidine-1-carbonyl)phenyl)nicotinamide] | 6.51 | 93 | 603 | 1230 | > 10 |
| Cc1ccc(C(=O)N2CCC(c3ccc(-c4cnoc4)cc3)CC2)cc1NC(=O)c1ccc(NC(C)C)nc1 [Compound 51, 6-(isopropylamino)-N-(5-(4-(4-(isoxazol-4-yl)phenyl)piperidine-1-carbonyl)-2-methylphenyl)nicotinamide] | 7.83 | 110 | 25.1 | ~33.9 | 1.7 |
| Cc1ccc(C(=O)N2CC(c3ccc(-c4ccnn4C)cc3)C2)cc1NC(=O)c1ccc2ccccc2n1 [Compound 55, N-(2-methyl-5-(3-(4-(1-methyl-1H-pyrazol-5-yl)phenyl)azetidine-1-carbonyl)phenyl)quinoline-2-carboxamide] | 6.36 | 86 | 513 | ~77.6 | ~0.0851 |
| Cc1ccc(C(=O)N2CC(c3ccc(-c4ccnn4C)cc3)C2)cc1NC(=O)c1cncc(Br)c1 [Compound 56, 5-bromo-N-(2-methyl-5-(3-(4-(1-methyl-1H-pyrazol-5-yl)phenyl)azetidine-1-carbonyl)phenyl)nicotinamide] | 6.51 | 95 | 457 | 437 | 0.912 |
| Cc1ccc(C(=O)N2CC(c3ccc(-c4ccnn4C)cc3)C2)cc1NC(=O)c1ccc(N2CCCCC2)nc1 [Compound 57, N-(2-methyl-5-(3-(4-(1-methyl-1H-pyrazol-5-yl)phenyl)azetidine-1-carbonyl)phenyl)-6-(piperidin-1-yl)nicotinamide] | 7.60 | 106 | 25.7 | 45.7 | 6.31 |
| Cc1ccc(C(=O)N2CC(c3ccc(-c4ccnn4C)cc3)C2)cc1NC(=O)c1ccc(N2CCOCC2)nc1 [Compound 58, N-(2-methyl-5-(3-(4-(1-methyl-1H-pyrazol-5-yl)phenyl)azetidine-1-carbonyl)phenyl)-6-morpholinonicotinamide] | 7.95 | 111 | 28.2 | 18.2 | 3.72 |

Other lines, results leading:

| pIC50 [1] | inhibition at 10 µM [1] [%] | IC50 [2] [nM] | IC50 [3] [nM] | IC50 [4] [µM] | SMILES |
| --- | --- | --- | --- | --- | --- |
| 7.67 | 106 | 34.7 | 102 | > 10 | Cc1ccc(C(=O)N2CCC(c3ccc(-c4cn[nH]c4)cc3)CC2)cc1NC(=O)c1ccc(NC(C)C)nc1 [Compound 42, N-(5-(4-(4-(1H-pyrazol-4-yl)phenyl)piperidine-1-carbonyl)-2-methylphenyl)-6-(isopropylamino)nicotinamide] |
| 6.57 | 92 | 457 | 1410 | > 10 | Cc1ccc(C(=O)N2CCC(c3ccc4[nH]c(=O)sc4c3)CC2)cc1NC(=O)c1ccc(Cl)nc1 [Compound 48, 6-chloro-N-(2-methyl-5-(4-(2-oxo-2,3-dihydrobenzo[d]thiazol-6-yl)piperidine-1-carbonyl)phenyl)nicotinamide] |
| 6.92 | 97 | 229 | 813 | > 10 | Cc1ccc(C(=O)N2CCC(c3ccc4[nH]c(=O)sc4c3)CC2)cc1NC(=O)c1ccc(NC(C)C)nc1 [Compound 49, 6-(isopropylamino)-N-(2-methyl-5-(4-(2-oxo-2,3-dihydrobenzo[d]thiazol-6-yl)piperidine-1-carbonyl)phenyl)nicotinamide] |
